According to PMC4838342 (Nucleic Acids Research, 2015):
Ends that are not written are not given here.

Key:
[1] = test system: (His)6-sNASP; assay: Pulldown of MBP-H3 fusions by (His)6-sNASP (epitope mapping); type: binding, human; details: MBP fusions from whole cell bacterial extracts; Nickel-NTA beads; SDS-PAGE, Coomassie
Experimental: (§1) Protein was eluted in the same buffer with 250 mM imidazole, but without protease inhibitors. The (His)6 tag was cleaved overnight by TEV protease, whilst concomitantly dialysing to 100 mM sodium chloride, 20 mM Tris–HCl pH 8.0, 1 mM EDTA and 5 mM dithiothreitol. Cleaved protein was further purified by ion-exchange using a ResourceQ column (GE Healthcare) before gel filtration chromatography in 200 mM sodium chloride, 20 mM Hepes-KOH pH 7.6 and 1 mM EDTA using a 26/60 Superdex 200 column (GE Healthcare). The purified protein was concentrated and stored in aliquots at −80°C. Homologues, truncations and point mutants of sNASP were expressed and purified using the same method. MBP-H3 peptide fusions were expressed in bacteria and used as whole cell extracts (epitope mapping) or purified over a Dextrin Sepharose column (GE Healthcare) in one-step purification in 0.5 M sodium chloride, 20 mM Hepes-KOH pH 7.6, 1 mM EDTA and 5 mM dithiothreitol. Concentrated protein was dialysed against 200 mM sodium chloride, 20 mM Hepes-KOH, 1 mM EDTA and 5 mM dithiothreitol and stored in aliquots at −80°C.
Mutations were made in the MBP H3 116–135 construct using a mixture of site-direct mutagenesis and oligo ligation. Whole cell extracts were prepared from bacteria and used as inputs for the pulldown experiments with (His)6-sNASP pre-bound to Nickel-NTA beads (GE Healthcare).

[2] = test system: sNASP; assay: Isothermal titration calorimetry, sNASP titrated into MBP H3 116–135; design: species or system human; details: one-site binding model
Experimental: Isotherms were analysed by the software NITPIC and SEDPHAT ([43]) and plotted using the software GUSSI.

[3] = test system: sNASP; assay: Analytical gel filtration, sNASP + MBP H3 116–135; type: binding, human; details: Superdex S200; 20 mM Hepes-KOH pH 7.5, 200 mM NaCl
Experimental: (§2) Analytical gel filtration was carried out using a Superdex S200 10/300 Gl column (GE Healthcare) in 20 mM Hepes-KOH pH 7.5 and 200 mM sodium chloride, unless otherwise stated. 0.5 ml fractions were collected encompassing the void (7 ml) and bed (21 ml) volumes of the column. Fractions were separated by SDS-PAGE and stained with Coomassie Brilliant Blue (SERVA).

[4] = test system: sNASP homologue from Arabidopsis thaliana; assay: Pulldown of MBP H3 116–135 by A. thaliana sNASP homologue; type: binding; details: (His)6-tagged recombinant homologue
Experimental: as §1
(§3) Mutations were made in the MBP H3 116–135 construct using a mixture of site-direct mutagenesis and oligo ligation. Whole cell extracts were prepared from bacteria and used as inputs for the pulldown experiments with (His)6-sNASP pre-bound to Nickel-NTA beads (GE Healthcare). […]

[5] = test system: Sim3; assay: Pulldown of MBP H3 116–135 by Sim3; type: binding, Schizosaccharomyces pombe; details: (His)6-tagged recombinant homologue
Experimental: as §1, §3

[6] = test system: sNASP homologue from Chaetomium thermophilum; assay: Pulldown of MBP H3 116–135 by C. thermophilum sNASP homologue; type: binding; details: (His)6-tagged recombinant homologue
Experimental: as §1, §3

[7] = test system: Hif1; assay: Pulldown of MBP H3 116–135 by Hif1; type: binding, Saccharomyces cerevisiae; details: (His)6-tagged recombinant homologue
Experimental: as §1, §3

[8] = test system: Sim3; assay: Gel filtration, Sim3 + MBP H3 116–135; type: binding, Schizosaccharomyces pombe; details: Superdex S200; 20 mM Hepes-KOH pH 7.5, 200 mM NaCl
Experimental: as §2

[9] = test system: Hif1-GST; assay: Gel filtration, Hif1-GST + MBP H3 116–135; type: binding, Saccharomyces cerevisiae; details: Superdex S200; 20 mM Hepes-KOH pH 7.5, 200 mM NaCl; Hif1 GST tagged
Experimental: as §2

[10] = test system: sNASP; assay: Fluorescence-2-hybrid (F2H) assay at LacO array, EGFP-sNASP; type: cell-based, human; details: U2OS cells, LacO (256×) array, mCherry-LacI-histone constructs, live cells
Experimental: For all the F2H assays, we used human U2OS cells harbouring the stably integrated lacO (256×) array described earlier ([44]), except for mitochondrial F2H, which was carried out on U2OS cells without an integrated array. F2H assays were essentially performed as previously described in ([45],[46]) and ([44]). Image analysis was manually performed with ImageJ image analysis software. Fluorescence intensity at the LacI array was calculated as a percentage increase over the nucleoplasm. Assignment of the LacO array and nucleoplasm were done manually. Twenty cells were counted for statistical analysis so as not to inflate the calculated P-value. Only cells in which a clearly discernable array was present were counted. For the mitochondrial F2H, the first 70 residues of the outer mitochondrial membrane protein TOM70 were cloned onto the N-terminus of mCherry. Full length H3 or H3 residues 116–135 was then cloned onto the C-terminus of mCherry to create a TOM70-mCherry-Histone triple fusion. Deleting residues 378–383 using standard site-directed mutagenesis techniques disrupted the nuclear localization sequence (NLS) of mEGFP-sNASP, resulting in its cytoplasmic expression.

125–135: H3 fragment fused to MBP (QLARRIRGERA; also: fused to MBP; UniProt P68431 126-136, looked up, fragment)
pulldown by (His)6-sNASP [1]: pulled down efficiently

CENPA: homologous region of the CENPA variant of H3 from human (VTLFPKDVQLARRIRGLEE; UniProt P49450 119-137, looked up, fragment)
pulldown by (His)6-sNASP [1]: able to pull down

MBP H3 116–135: C-terminal 20 residues of H3 fused to MBP
stoichiometry in words ([2]; partial degradation likely caused underestimated ratios): close to 1:1 stoichiometry | Kd ([2]; range of n = 3 with varying cell and titrant concentrations, read-out: dissociation constant): 47 to 68 nM | pulldown by (His)6-sNASP [1]: pulled down to near stoichiometric amounts | complex formation by gel filtration [3]: form a stable complex | pulldown by A. thaliana homologue [4]: pulled down stoichiometric amounts | pulldown by S. pombe homologue (Sim3) [5]: pulled down stoichiometric amounts | pulldown by C. thermophilum homologue [6]: pulled down stoichiometric amounts | pulldown by S. cerevisiae homologue (Hif1) [7]: no pull down was observed | complex formation with Sim3 by gel filtration [8]: coeluted | complex formation with Hif1-GST by gel filtration [9]: eluted in separate fractions

last 20 residues of H3: short region encompassing the last 20 residues of H3
interaction with sNASP in F2H assay [10]: sufficient for binding
